Measured values reported in patent publication US9067923B2, “Substituted quinoxalines” (Kyowa Hakko Kirin Co., Ltd., priority 2011, dated 2015).

How the values were obtained:
CYP3A4 = experiment: Induction of CYP3A4 using HepaRG cells (midazolam metabolizing activity); assay type: in vitro ADME; details: 1 μmol/L test compound, 72 hours, 1'-hydroxymidazolam formation relative to DMSO negative control
Method: CYP3A4-inducing activity was evaluated using HepaRG cells (Biopredic international). HepaRG cells were suspended in a medium at a concentration of 0.72×10^6 cells/mL and added in a volume of 100 μL to each well of a 96-well collagen coated plate (Biopredic international). The medium used for seeding HepaRG cells was HepaRG Thawing and Seeding Medium 670 (Biopredic international) and the medium used during treatment with a test compound was HepaRG Serum-free Induction Medium 650 (Biopredic international). Three days after the seeding of HepaRG cells, treatment with a test compound was started. After 200 μL of HepaRG Serum-free Induction Medium 650 was added to each well of the 96-well, collagen plate, a test compound dissolved in dimethylsulfoxide (DMSO) was added in a volume of 0.5 μL to each well so that the final concentration was 1 μmol/L. The well to which only DMSO was added was used as a negative control. The medium in the wells containing the test compound was replaced every 24 hours and the treatment with the test compound was continued for 72 hours. The fourth day after the start of the treatment with the test compound, midazolam, which is a typical substrate for CYP3A4, was added and CYP3A4-inducing activity was evaluated by measuring changes in the metabolic activity. The medium was removed by suction and each well was washed twice with PBS (150 μL/well) warmed to 37° C. HepaRG Serum-free Induction Medium 650 containing 20 μmol/L midazolam was warmed to 37° C. and added in a volume of 100 μL to each well. The plate was incubated in a CO2 incubator for 2 hours. At the end of the reaction, 70 μL of the reaction medium was recovered from each well and mixed with 70 μL of a methanol solution containing an internal standard (propranolol, 2 μmol/L). The mixture was centrifuged (at 5000×g at 4° C. for 10 minutes) and the supernatant was used as an analysis sample. The midazolam metabolizing activity was evaluated by measuring the amount of a produced metabolite by CYP3A4, 1′-hydroxymidazolam, by means of a liquid chromatograph-tandem mass spectrometry (LC-MS/MS). Agilent 1100 series (Agilent technologies) was used as the LC device, API2000 (AB sciex) was used as the MSMS device, and HTC PAL (CTC analytics) was used as the autosampler. CAPCELL PAK C18 ACR column (3 μm, 3 mm (I. D.)×35 mm, purchased from Shiseido Co., Ltd.) was used as the analytical column. The mobile phase A was 10 mmol/L aqueous ammonium acetate solution and the mobile phase B was methanol. The gradient conditions were 0 min (B=30%), 0.2 min (B=30%), 2.2 min (B=95%), 4 min (B=95%), 4.01 min (B=30%), 5 min (B=30%). The flow rate was 0.6 mL/min and the sample injection volume was 30 μL. The ions were detected by atmospheric pressure ionization mode using the MSMS device. The detection was performed by multiple reaction monitoring and the 1′-hydroxy midazolam ions were detected at m/z (precursor ion>product ion)=342.1>168.2.
The fold induction by each test compound was determined by using formula A2 below, which is for calculating the fold induction as the ratio of the metabolic activity in the test compound-treatment group to that of the negative control group (DMSO-treatment group).

[1] = tested on: production of kynurenine in human gastric cancer cell line KATO-III; experiment: Inhibitory activity on the production of kynurenine (IFN-γ-treated KATO-III cells); assay type: cell-based; details: 10 μmol/L test compound, KATO-III cells treated with IFN-γ, 96 hours
Method: This assay was performed by a modification of the method described in J. Biol. Chem., vol. 263, pp. 2041-2048 ([…]). For culture of the human gastric cancer cell line […], RPMI 1640 (GIBCO, 11875) supplemented with 10 vol % FBS (GIBCO, 10091-148, lot. 665285) was used. One μL of a test substance in a DMSO solution was diluted with 199 μL of the culture medium and placed in wells of a 384-well plate (10 μL/well). Next, IFN-γ (Sigma, I-3265) was added to a fresh culture medium to a concentration of 31.25 ng/mL, and KATO-III cells were suspended at 50,000 cells/mL in the culture medium. Forty μL of the suspension was added to each well (2,000 cells/well) and cultured under 5% CO2 at 37° C. for 96 hours. The final concentration of DMSO was limited to 0.1 vol % or less so that DMSO itself may not affect the kynurenine concentration measured in this assay. After the culture, 10 μL of a 30 w/v % aqueous trichloroacetic acid solution was added to each well, and incubation was performed at 65° C. for 30 minutes. The plate was centrifruged at 2,500×g for 5 minutes and 15 μL of the supernatant in each well was transferred into another 384-well plate. To the transferred supernatant, 15 μL of a 2 w/v % solution of p-dimethylaminobenzaldehyde in acetic acid was added, incubation was performed at 65° C. for 20 minutes and the absorbance was measured at 480 nm.
Sample: the absorbance value of the well to which DMSO solution containing a test substance was added and in which the cells were treated with IFN-γ.
Blank: the absorbance value of the well to which DMSO not containing a test substance was added and in which the cells were treated with IFN-γ.
Control: the absorbance value of the well to which DMSO not containing a test substance was added and in which the cells were not treated with IFN-γ.
The inhibition % of each test compound was calculated by formula A1.
In this assay, the expression of IDO in KATO-III cells is induced by IFN-γ treatment, and kynurenine in the culture medium is quantified. The kynurenine concentration in a culture medium is known to increase in proportion to the enzymatic activity of intracellular IDO (for example, J. Biol. Chem., vol. 263, pp. 2041-2048 (1988)). […] The production of kynurenine is known to be inhibited by IDO inhibitors (for example, J. Clin. Invest., vol. 117, No. 5, pp. 1147-1154 ([…])), and thus it is speculated that compounds (I) also have an inhibitory effect on IDO.

SMILES	Fold induction (CYP3A4)	inhibition at 10 µM [1] [%]
COCCS(=O)(=O)Nc1nc2ccccc2nc1O[C@H](c1ccc(-c2noc(C3CC3)n2)nc1)C(F)(F)F [Compound 37, (R)-N-(3-(1-(6-(5-cyclopropyl-1,2,4-oxadiasol-3-yl)pyridin-3-yl)-2,2,2-trifluoroethoxy)quinoxalin-2-yl)-2-methoxyethanesulfonamide]	1.33	–
CCCS(=O)(=O)Nc1nc2ccccc2nc1O[C@H](c1ccc(-c2noc(C)n2)nc1)C(F)(F)F [Compound 28, (R)-N-(3-(2,2,2-trifluoro-1-(6-(5-methyl-1,2,4-oxadiaxol-3-yl)pyridin-3-yl)ethoxy)quinoxalin-2-yl)propane-1-sulfonamide]	1.27	–
COCCS(=O)(=O)Nc1nc2ccccc2nc1OC(c1ccc(-c2noc(C)n2)nc1)C(F)(F)F (stereo not shown) [Compound 27, 2-methoxy-N-(3-(2,2,2-trifluoro-1-(6-(5-methyl-1,2,4-oxadiazol-3-yl)pyridin-3-yl)ethoxy)quinoxalin-2-yl) ethanesulfonamide]	1.21	–
CCCS(=O)(=O)Nc1nc2ccccc2nc1OC(c1ccc(-c2noc(C3CC3)n2)nc1)C(F)(F)F (stereo not shown) [Compound 25, N-(3-(1-(6-(5-cyclopropyl-1,2,4-oxadiazol-3-yl)pyridin-3-yl)-2,2,2-trifluoroethoxy)quinoxalin-2-yl)propane-1-sulfonamide]	1.41	≥ 80
COCCS(=O)(=O)Nc1nc2ccccc2nc1O[C@H](c1ccc(-c2cnco2)nc1)C(F)(F)F [Compound 30, (R)-2-methoxy-N-(3-(2,2,2-trifluoro-1-(6-(oxazol-5-yl)pyridin-3-yl)ethoxy)quinoxalin-2-yl)ethanesulfonamide]	1.12	≥ 80
